Data as given in patent US12185723B2, “Herbicidally active 3-phenylisoxazoline-5-carboxamides of s-containing cyclopentenylcarboxylic esters” (Bayer Aktiengesellschaft, priority 2019, dated 2025).

Experiments:
Type in all cases: in vivo
Alopecurus myosuroides = assay: Post-emergence herbicidal action against ALOMY; details: visual rating about 3 weeks after treatment
In short: (§1)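 Greenhouse pot test in sandy loam; plants sprayed at the one-leaf stage (2–3 weeks after sowing) with WP or EC formulations in water plus 0.5% additive at 600 l/ha. Activity rated visually about 3 weeks later against untreated controls (0% = like control, 100% = plants dead).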

Avena fatua = assay: Post-emergence herbicidal action against AVEFA; details: visual rating about 3 weeks after treatment
In short: as §1

Abutilon theophrasti = assay: Post-emergence herbicidal action against ABUTH; details: visual rating about 3 weeks after treatment
In short: as §1

Matricaria inodora = assay: Post-emergence herbicidal action against MATIN
Method: (§2) Post-Emergence Herbicidal Action Against Harmful Plants and Crop Plant Compatibility Seeds of monocotyledonous and dicotyledonous weeds and crop plants are placed in sandy loam in plastic or wood-fibre pots, covered with soil and cultivated in a greenhouse under controlled growth conditions. 2 to 3 weeks after sowing, the test plants are treated at the one-leaf stage. The compounds of the invention, formulated in the form of wettable powders (WP) or as emulsion concentrates (EC), are then sprayed onto the green parts of the plants as aqueous suspension or emulsion with addition of 0.5% additive at a water application rate of 600 l/ha (converted). After the test plants have been kept in the greenhouse under optimum growth conditions for about 3 weeks, the activity of the preparations is rated visually in comparison to untreated controls. For example, 100% activity=the plants have died, 0% activity=like control plants. [table]

Pharbitis purpurea = assay: Post-emergence herbicidal action against PHBPU
In short: as §1

Stellaria media = assay: Post-emergence herbicidal action against STEME
Method: as §2

Viola tricolor = assay: Post-emergence herbicidal action against VIOTR
Method: as §2

Veronica persica = assay: Post-emergence herbicidal action against VERPE
In short: as §1

DIGSA = assay: Post-emergence herbicidal action against DIGSA; details: visual rating about 3 weeks after treatment
In short: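 Greenhouse-grown plants sprayed at one-leaf stage (2–3 weeks after sowing) with WP or EC formulations as aqueous suspension/emulsion plus 0.5% additive, 600 l/ha water. Activity rated visually about 3 weeks later versus untreated controls, 100% = plants dead, 0% = like controls.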

Echinochloa crus-galli = assay: Post-emergence herbicidal action against ECHCG; details: visual rating about 3 weeks after treatment
In short: as §1

Lolium rigidum = assay: Post-emergence herbicidal action against LOLRI; details: visual rating about 3 weeks after treatment
In short: as §1

Setaria viridis = assay: Post-emergence herbicidal action against SETVI; details: visual rating about 3 weeks after treatment
In short: as §1

Amaranthus retroflexus = assay: Post-emergence herbicidal action against AMARE
In short: as §1

Polygonum convolvulus = assay: Post-emergence herbicidal action against POLCO
In short: as §1

Hordeum murinum = assay: Post-emergence herbicidal action against HORMU
Method: as §2

[1] = 80 g a.i./ha, visual rating about 3 weeks after treatment

Row | Structure (SMILES) | Herbicidal action against [%] ALOMY (Alopecurus myosuroides; 80 g a.i./ha) | Herbicidal action against [%] AVEFA (Avena fatua; 80 g a.i./ha) | Herbicidal action against [%] MATIN (Matricaria inodora; [1]) | Herbicidal action against [%] PHBPU (Pharbitis purpurea; 80 g a.i./ha) | Herbicidal action against [%] STEME (Stellaria media; 20 g a.i./ha) | Herbicidal action against [%] STEME (Stellaria media; 80 g a.i./ha) | Herbicidal action against [%] VIOTR (Viola tricolor; 20 g a.i./ha) | Herbicidal action against [%] VERPE (Veronica persica; 20 g a.i./ha) | Herbicidal action against [%] VERPE (Veronica persica; 80 g a.i./ha) | Herbicidal action against [%] ALOMY (Alopecurus myosuroides; 20 g a.i./ha) | Herbicidal action against [%] AVEFA (Avena fatua; 20 g a.i./ha) | Herbicidal action against [%] DIGSA (DIGSA; 20 g a.i./ha) | Herbicidal action against [%] DIGSA (DIGSA; 80 g a.i./ha) | Herbicidal action against [%] ECHCG (Echinochloa crus-galli; 80 g a.i./ha) | Herbicidal action against [%] LOLRI (Lolium rigidum; 20 g a.i./ha) | Herbicidal action against [%] LOLRI (Lolium rigidum; 80 g a.i./ha) | Herbicidal action against [%] SETVI (Setaria viridis; 20 g a.i./ha) | Herbicidal action against [%] SETVI (Setaria viridis; 80 g a.i./ha) | Herbicidal action against [%] HORMU (Hordeum murinum; 20 g a.i./ha) | Herbicidal action against [%] HORMU (Hordeum murinum; 80 g a.i./ha) | other results
1 | COC1(C(=O)NC2C=CC(C(=O)OCCSC)C2)CC(c2cccc(F)c2)=NO1 (mixture of isomers) [Example I-36] | 80% | 80% | 80% | 80% | 80% | 80% | 80% | 80% | 80% |  |  |  |  |  |  |  |  |  |  |  | Herbicidal action against [%] ABUTH (Abutilon theophrasti; 80 g a.i./ha): 80%; Herbicidal action against [%] PHBPU (Pharbitis purpurea; 20 g a.i./ha): 80%
2 | CSCCOC(=O)C1C=CC(NC(=O)C2(C)CC(c3cc(C#N)cc(C#N)c3)=NO2)C1 (mixture of isomers) [Example I-46] | 90% | 90% |  | 80% | 90% | 90% | 90% | 80% | 90% | 90% | 90% | 90% | 90% | 80% | 90% | 90% | 90% | 90% | 90% | 90% | Herbicidal action against [%] AMARE (Amaranthus retroflexus; [1]): 90%; Herbicidal action against [%] POLCO (Polygonum convolvulus; 20 g a.i./ha): 80%; Herbicidal action against [%] POLCO (Polygonum convolvulus; 80 g a.i./ha): 90%; Herbicidal action against [%] VIOTR (Viola tricolor; 80 g a.i./ha): 80%
3 | C=CC1(C(=O)NC2C=CC(C(=O)OCCSC)C2)CC(c2cc(C)cc(F)c2)=NO1 (mixture of isomers) [Example I-47] | 90% | 90% | 80% |  | 90% | 90% | 90% | 80% | 80% | 90% | 80% | 80% | 90% | 80% | 80% | 80% | 80% | 80% |  | 80% | Herbicidal action against [%] AMARE (Amaranthus retroflexus; [1]): 100%
4 | CSCCOC(=O)C1C=CC(NC(=O)C2(C)CC(c3cc(F)cc(Cl)c3)=NO2)C1 (stereo not drawn) [Example I-32] | 100% | 90% | 80% | 80% | 80% | 90% | 80% | 80% | 90% | 90% | 90% | 80% | 80% | 80% | 90% | 90% | 80% | 80% | 80% | 80% | Herbicidal action against [%] ECHCG (Echinochloa crus-galli; 20 g a.i./ha): 80%; Herbicidal action against [%] AMARE (Amaranthus retroflexus; [1]): 80%; Herbicidal action against [%] MATIN (Matricaria inodora; 20 g a.i./ha): 80%
5 | CSCCOC(=O)[C@@H]1C=C[C@H](NC(=O)C2(C(F)(F)F)CC(c3cc(F)cc(Cl)c3)=NO2)C1 (stereo partly drawn) [Example I-33, 2-methylsulfanylethyl (1S,4R)-4-[[3-(3-chloro-5-fluorophenyl)-5-(trifluoromethyl)-4H-isoxazole-5-carbonyl]amino]cyclopent-2-ene-1-carboxylate] | 90% | 100% | 80% |  | 90% | 90% | 90% | 80% | 80% | 80% | 80% | 80% | 80% | 80% | 90% | 90% | 80% | 80% | 80% | 90% | Herbicidal action against [%] ABUTH (Abutilon theophrasti; 20 g a.i./ha): 80%; Herbicidal action against [%] ABUTH (Abutilon theophrasti; 80 g a.i./ha): 80%; Herbicidal action against [%] MATIN (Matricaria inodora; 20 g a.i./ha): 80%
6 | CSCCOC(=O)C1C=CC(NC(=O)C2(C)CC(c3cccc(F)c3)=NO2)C1 (stereo not drawn) [Example I-34] | 100% | 90% |  | 90% | 90% | 90% | 90% | 90% | 90% | 100% | 90% | 80% | 80% | 80% | 100% | 100% | 80% | 80% | 80% | 80% | Herbicidal action against [%] ECHCG (Echinochloa crus-galli; 20 g a.i./ha): 80%; Herbicidal action against [%] ABUTH (Abutilon theophrasti; 80 g a.i./ha): 80%; Herbicidal action against [%] PHBPU (Pharbitis purpurea; 20 g a.i./ha): 90%; Herbicidal action against [%] POLCO (Polygonum convolvulus; 20 g a.i./ha): 80%; Herbicidal action against [%] POLCO (Polygonum convolvulus; 80 g a.i./ha): 90%; Herbicidal action against [%] VIOTR (Viola tricolor; 80 g a.i./ha): 80%
7 | C=CC1(C(=O)NC2CC=C(C(=O)OCCSC)C2)CC(c2cc(F)cc(F)c2)=NO1 (stereo not drawn) [Example I-50] | 100% | 100% |  | 90% | 80% | 90% | 80% |  | 90% |  | 90% | 90% | 90% | 90% |  | 100% |  | 90% | 100% | 100% | Herbicidal action against [%] ABUTH (Abutilon theophrasti; 80 g a.i./ha): 80%; Herbicidal action against [%] AMARE (Amaranthus retroflexus; 20 g a.i./ha): 90%; Herbicidal action against [%] AMARE (Amaranthus retroflexus; [1]): 90%; Herbicidal action against [%] PHBPU (Pharbitis purpurea; 20 g a.i./ha): 90%; Herbicidal action against [%] POLCO (Polygonum convolvulus; 20 g a.i./ha): 80%; Herbicidal action against [%] POLCO (Polygonum convolvulus; 80 g a.i./ha): 90%; Herbicidal action against [%] VIOTR (Viola tricolor; 80 g a.i./ha): 90%
8 | CSCCOC(=O)C1=CC(NC(=O)C2(C)CC(c3cc(F)cc(F)c3)=NO2)CC1 (stereo not drawn) [Example I-51] | 90% | 100% | 80% | 80% | 90% | 90% | 90% | 90% | 90% | 90% | 100% | 80% | 80% | 90% | 90% | 100% | 80% | 80% | 90% | 90% | Herbicidal action against [%] ECHCG (Echinochloa crus-galli; 20 g a.i./ha): 80%; Herbicidal action against [%] AMARE (Amaranthus retroflexus; [1]): 80%; Herbicidal action against [%] POLCO (Polygonum convolvulus; 80 g a.i./ha): 80%
